Structures are written as SMILES.

This is an account of results in article PMC4754968 (Clinical genitourinary cancer, 2014).

A short description of data set [1]: Sunitinib multiple-dose pharmacokinetics. Type of data set: in vivo, patients. The following applies: for AUC / CL/F / Cmax / half-life: human, oral; for AUC / CL/F / Cmax / half-life / Cmin / Tmin: plasma, multiple dose (dose 14), sunitinib 50 mg daily with everolimus 30 mg weekly; for AUC: AUCtau, dosing interval 24 hours; for CL/F: dose/AUCtau.
Data set [2] has as its system metastatic RCC. To be noted: front line metastatic RCC setting; ref [1],[2]; cited from earlier work.
A short description of data set [3]: Everolimus single-dose pharmacokinetics. Type of data set: in vivo, patients. The following applies: for AUCinf % extrapolated: single dose everolimus 30 mg.
For data set [4] the following is noted: human, in vivo, 30 mg.
For data set [5] the following is noted: cited from earlier work.
For data set [6] the following is noted: cited from earlier work. The source holds these as a separate data set.
Data set [7] concerns metastatic RCC. To be noted: metastatic RCC previously treated with VEGFR tyrosine kinase inhibitor; ref [6]; cited from earlier work.

By AUC is commonly meant the area under the concentration-time curve, a measure of exposure. A high value points to more exposure. By CL/F is commonly meant clearance divided by bioavailability, as obtained after extravascular dosing. A word on the Cmax: it is the maximum level reached in the sampled fluid or tissue. One may read the half-life as the time needed for the level to fall by half in the phase considered. The low end stands for rapid decline, the high end for slow decline. Take `CCN(CC)CCNC(=O)c1c(C)[nH]c(/C=C2\C(=O)Nc3ccc(F)cc32)c1C` [Sunitinib, Sunitinib malate]: in data set [1] (subject 1001), the AUC worked out at 1860 ng·h/mL, the apparent clearance (CL/F) was 7.13 mL/min/kg, the Cmax is 83.1 ng/mL and the Cmin is given as 59.4 ng/mL. In addition, in data set [1] (subject 1001), the Tmin is 2 h. In data set [1] (subject 1002), this compound showed an AUC of 2770 ng·h/mL, a CL/F of 3.12 mL/min/kg, a Cmax of 142 ng/mL and a Cmin of 80.3 ng/mL. The Tmin in data set [1] (subject 1002) is 0 h. For the same compound, in data set [1] (subject 1003), the AUC is 2300 ng·h/mL, the CL/F is 5.34 mL/min/kg and the maximum concentration (Cmax) came out at 106 ng/mL. This compound had a half-life in data set [1] (t1/2, subject 1002) of 33 h. The compound further showed a half-life in data set [1] (t1/2, subject 1003) of 85.5 h. The “AUCtau compared with sunitinib monotherapy” value in data set [1] (same dose of sunitinib (50 mg/d), compared with Faivre, et al) is reported as “substantially higher”. Also, the “progression free survival (PFS)” value in the data set with metastatic RCC [2] is reported as “less than a year”.
Take `Cc1ccc(Nc2nccc(N(C)c3ccc4c(C)n(C)nc4c3)n2)cc1S(N)(=O)=O` [pazopanib]: the “progression free survival (PFS)” value in the data set with metastatic RCC [2] is “less than a year”.
Usually Tmax stands for the time at which the peak concentration occurs. The term AUC(0-inf) denotes the area under the concentration-time curve extrapolated to infinity. A lower AUC(0-inf) goes with low exposure. Broadly, the bioavailability is dose-corrected exposure relative to a reference, in per cent. On to `CO[C@H]1C[C@@H]2CC[C@@H](C)[C@@](O)(O2)C(=O)C(=O)N2CCCC[C@H]2C(=O)O[C@H]([C@H](C)C[C@@H]2CC[C@@H](OCCO)[C@H](OC)C2)CC(=O)[C@H](C)/C=C(\C)[C@@H](O)[C@@H](OC)C(=O)[C@H](C)C[C@H](C)/C=C/C=C/C=C/1C` [Everolimus], for which the time of peak concentration (Tmax) in data set [3] (human, plasma, po) was found to be 2 h. The AUC(0-inf) in data set [3] (human, plasma, po, AUCinf, subject 1002, after first oral dose of everolimus 30 mg, with sunitinib 50 mg daily, plasma) amounted to 1560 ng·h/mL. Besides, in data set [3] (human, plasma, po, CL/F, subject 1002, after first oral dose of everolimus 30 mg, with sunitinib 50 mg daily, plasma), the CL/F was 3.34 mL/min/kg. The same compound had a Cmax in data set [3] (human, plasma, po, Cmax, subject 1002, after first oral dose of everolimus 30 mg, with sunitinib 50 mg daily, plasma) of 82.3 ng/mL. This compound also showed a half-life in data set [3] (human, plasma, po, t1/2, subject 1002, after first oral dose of everolimus 30 mg, with sunitinib 50 mg daily, plasma) of 25.7 h. In addition, the AUCinf % extrapolated is 48.7% in data set [3] (subject 1002) and 35.2% in data set [3] (subject 1003). Moreover, in data set [4], the “AUCtau relative to AUCinf after the first dose” value is listed as “almost double”. Moreover, the bioavailability in data set [5] was 16%. Further, in data set [6], the eliminated in bile is 98%. Also, the “progression-free survival (PFS) over placebo” value with metastatic RCC [7] is given as “significant improvement”.
